Data taken from US9388193B2, “Dipicolylamine derivatives and their pharmaceutical uses” (National Health Research Institutes, priority 2014, dated 2016).
pIC50: −log10 of the molar value.

How the values were obtained:
[1] = system: Colo205 cells; assay: Cell viability MTS assay, Colo205; format: cell-based; conditions: Homo sapiens, COLO 205, 72 hours incubation
Experimental: (§1) SCM-1, MiaPaca2 and Colo205 cells were grown in RPMI 1640 (Roswell Park Memorial Institute) medium (RPMI; Gibco), supplemented with 10% fetal bovine serum (FBS; Gibco). Detroit551 cells were grown in Dulbecco's modified Eagle's medium (DMEM) supplemented with 10% FBS 50 U/mL of penicillin and streptomycin, and 1% Nonessential amino acids (NEAA; Gibco).
(§2) Zn-DPA conjugates, Zn-DPA-(8), Zn-DPA-(12), Zn-DPA-(25), Zn-DPA-(26), and Zn-DPA-(42) prepared from the corresponding compounds 8, 12, 25, 26, and 42, respectively, were used to inhibit the growth of human cancer cells (SCM-1, Colo205, MiaPaca2) and human embryonic skin fibroblast cells Detroit551 following the procedures described below.
(§3) Cell viability was examined by the MTS assay (Promega, Madison, Wis., USA). More specifically, cells were grown (2500˜3000 cells/well) in a flat bottomed 96-well plate for 24 hours. A medium was added along with a test compound at a pre-determined concentration. The cells were further incubated for 72 hours. At the end of the incubation, the medium was removed and […] with 100 μl of a 3-(4,5-dimethylthiazol-2-yl)-5-(3-carboxymethoxyphenyl)-2-(4-sulfophenyl)-2H-tetrazolium/phenazine methosulfate mixture. The cells were again incubated for 1.5 hours at 37° C. in a humidified incubator with 5% CO2 to allow viable cells to convert the tetrazolium salt into formazan. The conversion was determined by measuring the absorbance at 490 nm using a BioTek PowerWave-X Absorbance Microplate Reader.
(§4) The data obtained were normalized using a vehicle (dimethyl sulfoxide, DMSO)-treated control (100% viability) and a background control (0% viability) to verify growth inhibition. The IC50 value is defined as the concentration of a compound that induces a 50% reduction in cell viability in comparison with a vehicle-treated control. These values were calculated using GraphPad Prism version 4 software (San Diego, Calif., USA).

[2] = format: in vitro ADME; conditions: mouse, plasma; for Stability (percentage remaining), time = 0: 0 h
Experimental: Plasma Stability of Zn-DPA Conjugates
Zn-DPA conjugates, Zn-DPA-(8), Zn-DPA-(12), Zn-DPA-(25), Zn-DPA-(26), and Zn-DPA-(42) prepared from the corresponding compounds 8, 12, 25, 26, and 42, respectively, were incubated in mouse plasma at 37° C. for up to 24 hours to assess the stability of these conjugates.
A sample was analyzed with a High Performance Liquid Chromatography system to determine the concentration of a test conjugate at one of four time points (i.e., 0, 3 hours, 6 hours, and 24 hours). The percentages of the test conjugate remaining at 3, 6, and 24 hours after incubation in the plasma were determined. A higher percentage indicates greater stability.

[3] = system: human embryonic skin fibroblast Detroit 551; assay: Cell viability MTS assay, Detroit 551; format: cell-based; conditions: 72 hours incubation
Experimental: as §1, §2, §3, §4

[4] = system: SCM-1 cells; assay: Cell viability MTS assay, SCM-1; format: cell-based; conditions: Homo sapiens, 72 hours incubation
Experimental: as §1, §2, §3, §4

[5] = system: Colo205 tumors; assay: In vivo antitumor assay, Colo205 tumor xenograft mouse model; set-up: species or system nude mice; conditions: compared to SN-38 at 10 mg/kg and CPT-11 at 40 mg/kg
Experimental: (§5) Two Zn-DPA conjugates, Zn-DPA-(26) and Zn-DPA-(42) were subjected to an in vivo antitumor assay against Colo205 or MiaPaca2 tumors growing in nude mice following the procedure described below.
(§6) More specifically, Colo205 or MiaPaca2 cells were cultured and maintained in a flask with a RPMI-1640 medium, which was supplemented with 10% FBS. The cells were harvested and innoculated (1×10^6 cells) subcutaneously into the left flank of a adult male nude mouse. Tumor-bearing mice were grouped at the mean tumor volume of approximately 200 mm^3. Tumor dimensions were measured with a digital caliper, and the tumor volume in mm^3 was calculated by the formula: Volume=(length×width^^2)/2.
(§7) The mice were housed in sterilized cages equipped with an air filter and sterile bedding materials at the Laboratory Animal Center of National Health Research Institutes. All mice were fed with sterilized water and chow at libitum under 12-hour light/12-hour dark cycle throughout the study.
(§8) Several dosages of Zn-DPA-(26) and Zn-DPA-(42), were used in this assay, i.e., 40 mg/kg, 20 mg/kg, and 10 mg/kg, p<0.05 vs. vehicle control by one-way ANOVA analysis and the Newman-Keuls multiple comparison test. […]

[6] = system: MiaPaca2 cells; assay: Cell viability MTS assay, MiaPaca2; format: cell-based; conditions: Homo sapiens, MIA PaCa-2, 72 hours incubation
Experimental: as §1, §2, §3, §4

[7] = system: MiaPaca2 tumors; assay: In vivo antitumor assay, MiaPaca2 tumor xenograft mouse model; set-up: species or system nude mice; conditions: i.v., 40, 20 and 10 mg/kg, compared to SN-38 at 10 mg/kg and CPT-11 at 40 mg/kg
Experimental: as §5, §6, §7, §8

CCc1c2c(nc3ccc(OC(=O)c4ccc(CN(CCCCOc5cc(CN(Cc6ccccn6)Cc6ccccn6)cc(CN(Cc6ccccn6)Cc6ccccn6)c5)C(=O)c5c(-c6ccccc6Cl)noc5C)cc4)cc13)-c1cc3c(c(=O)n1C2)COC(=O)[C@]3(O)CC [Zn-DPA-(25)]
pIC50 [1]: 6.24
Stability (percentage remaining), time = 0 [2]: 100%
Stability (percentage remaining), time = 3 hr [2]: 90%
Stability (percentage remaining), time = 6 hr [2]: 85%
pIC50 [3]: 5.14
pIC50 [4]: 6.00

CCc1c2c(nc3ccc(OC(=O)c4ccc(CN(CCCCOc5cc(CN(Cc6ccccn6)Cc6ccccn6)cc(CN(Cc6ccccn6)Cc6ccccn6)c5)C(=O)C5(c6ccc(Cl)cc6)CCCCC5)cc4)cc13)-c1cc3c(c(=O)n1C2)COC(=O)[C@]3(O)CC [Zn-DPA-(26)]
antitumor activity ([5]; i.v., dosages of 10 mg/kg and 40 mg/kg): much higher antitumor activities
pIC50 [1]: 5.96
Stability (percentage remaining), time = 0 [2]: 100%
Stability (percentage remaining), time = 3 hr [2]: 99%
Stability (percentage remaining), time = 6 hr [2]: 97%
pIC50 [3]: < 5.00
pIC50 [6]: 6.92
pIC50 [4]: 5.59

CCc1c2c(nc3ccc(O)cc13)-c1cc3c(c(=O)n1C2)COC(=O)[C@]3(O)CC [SN-38, reference compound]
pIC50 [1]: 6.85
pIC50 [3]: 5.40
pIC50 [6]: 7.70
pIC50 [4]: 6.19

CCc1c2c(nc3ccc(OC(=O)c4ccc(CN(CCOCCOCCNC(=O)c5ccc(CN(CCCCOc6cc(CN(Cc7ccccn7)Cc7ccccn7)cc(CN(Cc7ccccn7)Cc7ccccn7)c6)C(=O)C6(c7ccc(Cl)cc7)CCCCC6)cc5)C(=O)C5(c6ccc(Cl)cc6)CCCCC5)cc4)cc13)-c1cc3c(c(=O)n1C2)COC(=O)[C@]3(O)CC [Zn-DPA-(42)]
antitumor activity ([5]; i.v., 40, 20 and 10 mg/kg): antitumor activities in a dose-dependent manner and much higher antitumor activities
pIC50 [1]: 5.43
Stability (percentage remaining), time = 0 [2]: 100%
Stability (percentage remaining), time = 3 hr [2]: 99%
Stability (percentage remaining), time = 6 hr [2]: 98%
pIC50 [3]: < 5.00
pIC50 [6]: 6.26
antitumor activity [7]: antitumor activities in a dose-dependent manner and much higher antitumor activities

CCc1c2c(nc3ccc(OC(=O)N4CCC(N5CCCCC5)CC4)cc13)-c1cc3c(c(=O)n1C2)COC(=O)[C@]3(O)CC [CPT-11, reference compound]
pIC50 [1]: < 5.00
pIC50 [3]: < 5.00
pIC50 [6]: 5.44
pIC50 [4]: < 5.00

CCc1c2c(nc3ccc(OC(=O)c4cccc(NC(=O)NCCCCOc5cc(CN(Cc6ccccn6)Cc6ccccn6)cc(CN(Cc6ccccn6)Cc6ccccn6)c5)c4)cc13)-c1cc3c(c(=O)n1C2)COC(=O)[C@@]3(O)CC [Zn-DPA-(8)]
pIC50 [1]: 6.38
Stability (percentage remaining), time = 0 [2]: 100%
Stability (percentage remaining), time = 3 hr [2]: 90%
Stability (percentage remaining), time = 6 hr [2]: 82%
pIC50 [3]: 5.03
pIC50 [4]: 6.19

CCc1c2c(nc3ccc(OC(=O)CCSC4CC(=O)N(Cc5ccc(C(=O)NCCCCOc6cc(CN(Cc7ccccn7)Cc7ccccn7)cc(CN(Cc7ccccn7)Cc7ccccn7)c6)cc5)C4=O)cc13)-c1cc3c(c(=O)n1C2)COC(=O)[C@]3(O)CC (stereo partly drawn) [Zn-DPA-(12)]
pIC50 [1]: 6.92
Stability (percentage remaining), time = 0 [2]: 100%
Stability (percentage remaining), time = 3 hr [2]: 84%
Stability (percentage remaining), time = 6 hr [2]: 76%
pIC50 [3]: 5.54
pIC50 [4]: 6.03
